{"source": "PubChem BioAssay AID1963843", "about": "(Molecular Pharmacology Branch, DTP, NCI, 2024);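 note: spheroids exposed to compounds for one week before readout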;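 for viability, T/C: percent viability relative to DMSO vehicle wells taken as 100%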", "system": "616215-338-R-J1-PDC complex spheroid viability", "test": "Anticancer human tumor 616215-338-R-J1-PDC patient-derived colon adenocarcinoma cell line growth inhibition [POLQ]", "conditions": "for IC50: curve of first compound; for viability, T/C: stronger effect = lower value", "in_short": "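PDC + HUVEC + MSC complex spheroids; POLQ inhibitors ± partner drugs; top conc. at/near clinical Cmax, else 10 microM (SN-38 1 microM), half-log dilutions; 37 degrees C, 5% CO2.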", "key": {"[1]": {"conditions": "second compound 0.0316 µM, first compound 0.0316 µM"}, "[2]": {"conditions": "second compound 0.0316 µM, first compound 0.1 µM"}, "[3]": {"conditions": "second compound 0.0316 µM, first compound 0.316 µM"}, "[4]": {"conditions": "second compound 0.0316 µM, first compound 1 µM"}, "[5]": {"conditions": "second compound 0.1 µM, first compound 0.0316 µM"}, "[6]": {"conditions": "second compound 0.1 µM, first compound 0.1 µM"}, "[7]": {"conditions": "second compound 0.1 µM, first compound 0.316 µM"}, "[8]": {"conditions": "second compound 0.1 µM, first compound 1 µM"}, "[9]": {"conditions": "second compound 0.316 µM, first compound 0.0316 µM"}, "[10]": {"conditions": "second compound 0.316 µM, first compound 0.1 µM"}, "[11]": {"conditions": "second compound 0.316 µM, first compound 0.316 µM"}, "[12]": {"conditions": "second compound 0.316 µM, first compound 1 µM"}, "[13]": {"conditions": "second compound 1 µM, first compound 0.0316 µM"}, "[14]": {"conditions": "second compound 1 µM, first compound 0.1 µM"}, "[15]": {"conditions": "second compound 1 µM, first compound 0.316 µM"}, "[16]": {"conditions": "second compound 1 µM, first compound 1 µM"}, "[17]": {"conditions": "second compound 3.16 µM, first compound 0.0316 µM"}, "[18]": {"conditions": "second compound 3.16 µM, first compound 0.1 µM"}, "[19]": {"conditions": "second compound 3.16 µM, first compound 0.316 µM"}, "[20]": {"conditions": "second compound 3.16 µM, first compound 1 µM"}, "[21]": {"conditions": "second compound 10 µM, first compound 0.0316 µM"}, "[22]": {"conditions": "second compound 10 µM, first compound 0.1 µM"}, "[23]": {"conditions": "second compound 10 µM, first compound 0.316 µM"}, "[24]": {"conditions": "second compound 10 µM, first compound 1 µM"}}}
{"smiles": "C=CCn1c(=O)c2cnc(Nc3ccc(N4CCN(C)CC4)cc3)nc2n1-c1cccc(C(C)(C)O)n1", "note": "+ Cc1cccc(N(C)C(=O)C2C(O)CCN2c2nc(C)cc(C(F)(F)F)c2C#N)c1", "values": [{"measurement": "IC50", "setting": "second compound 0.0316 µM", "result": 269, "unit": "nM"}, {"measurement": "IC50", "setting": "second compound 0.1 µM", "result": 542, "unit": "nM"}, {"measurement": "IC50", "setting": "second compound 0.316 µM", "result": 559, "unit": "nM"}, {"measurement": "IC50", "setting": "second compound 1 µM", "result": 428, "unit": "nM"}, {"measurement": "IC50", "setting": "second compound 3.16 µM", "result": 333, "unit": "nM"}, {"measurement": "IC50", "setting": "second compound 10 µM", "result": 250, "unit": "nM"}, {"measurement": "viability, T/C", "setting": "second compound 0.0316 µM, first compound 0.00316 µM", "result": 110, "unit": "%"}, {"measurement": "viability, T/C", "setting": "second compound 0.0316 µM, first compound 0.01 µM", "result": 87.5, "unit": "%"}, {"measurement": "viability, T/C", "setting": "[1]", "result": 108, "unit": "%"}, {"measurement": "viability, T/C", "setting": "[2]", "result": 86.7, "unit": "%"}, {"measurement": "viability, T/C", "setting": "[3]", "result": 44.5, "unit": "%"}, {"measurement": "viability, T/C", "setting": "[4]", "result": 34.3, "unit": "%"}, {"measurement": "viability, T/C", "setting": "second compound 0.1 µM, first compound 0.00316 µM", "result": 102, "unit": "%"}, {"measurement": "viability, T/C", "setting": "second compound 0.1 µM, first compound 0.01 µM", "result": 97.4, "unit": "%"}, {"measurement": "viability, T/C", "setting": "[5]", "result": 85.7, "unit": "%"}, {"measurement": "viability, T/C", "setting": "[6]", "result": 93.4, "unit": "%"}, {"measurement": "viability, T/C", "setting": "[7]", "result": 65.4, "unit": "%"}, {"measurement": "viability, T/C", "setting": "[8]", "result": 31.2, "unit": "%"}, {"measurement": "viability, T/C", "setting": "second compound 0.316 µM, first compound 0.00316 µM", "result": 97.4, "unit": "%"}, {"measurement": "viability, T/C", "setting": "second compound 0.316 µM, first compound 0.01 µM", "result": 107, "unit": "%"}, {"measurement": "viability, T/C", "setting": "[9]", "result": 91.7, "unit": "%"}, {"measurement": "viability, T/C", "setting": "[10]", "result": 92.4, "unit": "%"}, {"measurement": "viability, T/C", "setting": "[11]", "result": 67.8, "unit": "%"}, {"measurement": "viability, T/C", "setting": "[12]", "result": 31.3, "unit": "%"}, {"measurement": "viability, T/C", "setting": "second compound 1 µM, first compound 0.00316 µM", "result": 96.8, "unit": "%"}, {"measurement": "viability, T/C", "setting": "second compound 1 µM, first compound 0.01 µM", "result": 90, "unit": "%"}, {"measurement": "viability, T/C", "setting": "[13]", "result": 92.5, "unit": "%"}, {"measurement": "viability, T/C", "setting": "[14]", "result": 76.7, "unit": "%"}, {"measurement": "viability, T/C", "setting": "[15]", "result": 58.4, "unit": "%"}, {"measurement": "viability, T/C", "setting": "[16]", "result": 27.8, "unit": "%"}, {"measurement": "viability, T/C", "setting": "second compound 3.16 µM, first compound 0.00316 µM", "result": 98.1, "unit": "%"}, {"measurement": "viability, T/C", "setting": "second compound 3.16 µM, first compound 0.01 µM", "result": 91.1, "unit": "%"}, {"measurement": "viability, T/C", "setting": "[17]", "result": 93.8, "unit": "%"}, {"measurement": "viability, T/C", "setting": "[18]", "result": 90.2, "unit": "%"}, {"measurement": "viability, T/C", "setting": "[19]", "result": 50.9, "unit": "%"}, {"measurement": "viability, T/C", "setting": "[20]", "result": 30.9, "unit": "%"}, {"measurement": "viability, T/C", "setting": "second compound 10 µM, first compound 0.00316 µM", "result": 109, "unit": "%"}, {"measurement": "viability, T/C", "setting": "second compound 10 µM, first compound 0.01 µM", "result": 90.1, "unit": "%"}, {"measurement": "viability, T/C", "setting": "[21]", "result": 90.2, "unit": "%"}, {"measurement": "viability, T/C", "setting": "[22]", "result": 83.8, "unit": "%"}, {"measurement": "viability, T/C", "setting": "[23]", "result": 40.9, "unit": "%"}, {"measurement": "viability, T/C", "setting": "[24]", "result": 26.9, "unit": "%"}]}
{"smiles": "O=C(c1cc(Cc2n[nH]c(=O)c3ccccc23)ccc1F)N1CCN(C(=O)C2CC2)CC1", "note": "+ COC1C(OC(N)=O)C(O)C(Oc2ccc3c(O)c(NC(=O)c4ccc(O)c(CC=C(C)C)c4)c(=O)oc3c2C)OC1(C)C", "values": [{"measurement": "IC50", "setting": "second compound 0.0316 µM", "result": "> 10000", "unit": "nM"}, {"measurement": "IC50", "setting": "second compound 0.1 µM", "result": "> 10000", "unit": "nM"}, {"measurement": "IC50", "setting": "second compound 0.316 µM", "result": "> 10000", "unit": "nM"}, {"measurement": "IC50", "setting": "second compound 1 µM", "result": "> 10000", "unit": "nM"}, {"measurement": "IC50", "setting": "second compound 3.16 µM", "result": "> 10000", "unit": "nM"}, {"measurement": "IC50", "setting": "second compound 10 µM", "result": "> 10000", "unit": "nM"}, {"measurement": "viability, T/C", "setting": "[1]", "result": 103, "unit": "%"}, {"measurement": "viability, T/C", "setting": "[2]", "result": 99.2, "unit": "%"}, {"measurement": "viability, T/C", "setting": "[3]", "result": 107, "unit": "%"}, {"measurement": "viability, T/C", "setting": "[4]", "result": 105, "unit": "%"}, {"measurement": "viability, T/C", "setting": "second compound 0.0316 µM, first compound 3.16 µM", "result": 109, "unit": "%"}, {"measurement": "viability, T/C", "setting": "second compound 0.0316 µM, first compound 10 µM", "result": 87.8, "unit": "%"}, {"measurement": "viability, T/C", "setting": "[5]", "result": 102, "unit": "%"}, {"measurement": "viability, T/C", "setting": "[6]", "result": 89, "unit": "%"}, {"measurement": "viability, T/C", "setting": "[7]", "result": 98.5, "unit": "%"}, {"measurement": "viability, T/C", "setting": "[8]", "result": 99.8, "unit": "%"}, {"measurement": "viability, T/C", "setting": "second compound 0.1 µM, first compound 3.16 µM", "result": 110, "unit": "%"}, {"measurement": "viability, T/C", "setting": "second compound 0.1 µM, first compound 10 µM", "result": 85.7, "unit": "%"}, {"measurement": "viability, T/C", "setting": "[9]", "result": 102, "unit": "%"}, {"measurement": "viability, T/C", "setting": "[10]", "result": 113, "unit": "%"}, {"measurement": "viability, T/C", "setting": "[11]", "result": 103, "unit": "%"}, {"measurement": "viability, T/C", "setting": "[12]", "result": 101, "unit": "%"}, {"measurement": "viability, T/C", "setting": "second compound 0.316 µM, first compound 3.16 µM", "result": 109, "unit": "%"}, {"measurement": "viability, T/C", "setting": "second compound 0.316 µM, first compound 10 µM", "result": 98.2, "unit": "%"}, {"measurement": "viability, T/C", "setting": "[13]", "result": 107, "unit": "%"}, {"measurement": "viability, T/C", "setting": "[14]", "result": 108, "unit": "%"}, {"measurement": "viability, T/C", "setting": "[15]", "result": 102, "unit": "%"}, {"measurement": "viability, T/C", "setting": "[16]", "result": 101, "unit": "%"}, {"measurement": "viability, T/C", "setting": "second compound 1 µM, first compound 3.16 µM", "result": 97, "unit": "%"}, {"measurement": "viability, T/C", "setting": "second compound 1 µM, first compound 10 µM", "result": 93.4, "unit": "%"}, {"measurement": "viability, T/C", "setting": "[17]", "result": 99.6, "unit": "%"}, {"measurement": "viability, T/C", "setting": "[18]", "result": 95, "unit": "%"}, {"measurement": "viability, T/C", "setting": "[19]", "result": 96.7, "unit": "%"}, {"measurement": "viability, T/C", "setting": "[20]", "result": 94.7, "unit": "%"}, {"measurement": "viability, T/C", "setting": "second compound 3.16 µM, first compound 3.16 µM", "result": 109, "unit": "%"}, {"measurement": "viability, T/C", "setting": "second compound 3.16 µM, first compound 10 µM", "result": 88.2, "unit": "%"}, {"measurement": "viability, T/C", "setting": "[21]", "result": 104, "unit": "%"}, {"measurement": "viability, T/C", "setting": "[22]", "result": 94, "unit": "%"}, {"measurement": "viability, T/C", "setting": "[23]", "result": 106, "unit": "%"}, {"measurement": "viability, T/C", "setting": "[24]", "result": 105, "unit": "%"}, {"measurement": "viability, T/C", "setting": "second compound 10 µM, first compound 3.16 µM", "result": 95.1, "unit": "%"}, {"measurement": "viability, T/C", "setting": "second compound 10 µM, first compound 10 µM", "result": 84.5, "unit": "%"}]}
